PubChem BioAssay AID652053 (Broad Institute, 2013)

Test system: Huh7 psiCHECK-miR122 Renilla luciferase reporter, 48 h
Experiment: miR-122 inhibitors in Huh7 reporter cells, dose response, cell-based, Huh7 psiCHECK-miR122, Renilla luciferase, cherry-pick (AID 652053)

`CCCC(=O)Nc1nc2ccc(S(=O)(=O)N3CCCCC3)cc2s1` gave an AC40 of 8.84 µM.

`C[C@H]1CN([C@@H](C)CO)C(=O)c2cccc(NC(=O)C3CC3)c2O[C@@H]1CN(C)Cc1ccc(C(F)(F)F)cc1` gave an AC40 of 0.42 µM.

`COc1ccc(Br)cc1CNC(=O)Nc1cccs1` was tested, and the AC40 was 15.5 µM.

`COc1ccccc1CN(C)C(=O)c1cccc(S(=O)(=O)N2CCCc3ccccc32)c1` was tested, and the AC40 was 4.57 µM.

`O=C(COc1ccc(S(=O)(=O)NC2CCCCC2)cc1)Nc1ccc2c(c1)OCCO2` was tested, and the AC40 was 7.82 µM.

`C[C@@H]1CN([C@@H](C)CO)C(=O)Cc2cc(NC(=O)Nc3ccc(C(F)(F)F)cc3)ccc2O[C@@H]1CN(C)C(=O)Nc1cccc2ccccc12` was tested, and the AC40 was 4.39 µM.

`O=C(CCc1ccc(S(=O)(=O)NC2CCCCC2)cc1)NCc1ccccc1` gave an AC40 of 4.38 µM.

In the case of `COc1ccc(NC(=O)Cc2cccc(F)c2)cc1S(=O)(=O)Nc1ccccc1Cl`, the AC40 is reported as 4.83 µM.

`O=C(NC1CCCC1)C(c1ccccc1)N(Cc1ccc2c(c1)OCO2)C(=O)Cc1cccs1` (configuration not stated) gave an AC40 of 6.85 µM.

With `C[C@H](CO)N1C[C@H](C)[C@@H](CN(C)Cc2ccccc2)Oc2c(NC(=O)C3CC3)cccc2C1=O` the AC40 was 6.79 µM.

With `COc1ccc(NS(=O)(=O)c2ccc(OC)c3ccccc23)cn1` the AC40 was 2.67 µM.

In the case of `S=C(Nc1ccc(Cl)c(Cl)c1)NC1CCCCC1`, the AC40 is reported as 1.37 µM.

With `COc1ccc(S(=O)(=O)Nc2cc3c4c(c2)CCC(=O)N4CCC3)cc1C` the AC40 was 6.67 µM.

For `C[C@@H]1CN([C@H](C)CO)C(=O)c2cc(N(C)C)ccc2O[C@@H]1CN(C)S(=O)(=O)c1ccc(Cl)cc1`, the AC40 was 6.57 µM.

`Cc1cc(C(=O)Nc2cccc3c2O[C@@H](CN(C)Cc2ccc(C(F)(F)F)cc2)[C@H](C)CN([C@H](C)CO)C3=O)n(C)n1` was tested, and the AC40 was 3.62 µM.

`COc1ccc(NS(=O)(=O)c2cc(NC(=O)c3ccc(=O)[nH]c3)ccc2C)cc1` was tested, and the AC40 was 2.64 µM.

`COc1ccccc1CNS(=O)(=O)c1cc(-c2cc(C)no2)ccc1C(C)C` gave an AC40 of 4.78 µM.

Work on `Cc1ccc(S(=O)(=O)NCCC2=CCCCC2)cc1` yielded an AC40 of 5.27 µM.

Molecule `C[C@@H]1CN([C@H](C)CO)C(=O)c2cccc(NC(=O)NC3CCCCC3)c2O[C@H]1CN(C)Cc1ccc(Cl)c(Cl)c1` has an AC40 of 0.891 µM.

Molecule `COc1ccc(S(=O)(=O)NCc2ccccn2)cc1NC(=O)c1ccccc1C` has an AC40 of 10.2 µM.

With `COc1cc(NS(=O)(=O)c2cc3c(cc2C)NC(=O)CO3)cc(OC)c1` the AC40 was 4.02 µM.

With `CN1C(=O)c2cc(NC(=O)Cc3ccccc3)ccc2OC[C@@H]2O[C@H](CC(=O)NCC3CC3)CC[C@@H]21` the AC40 was 0.512 µM.

With `Cc1cc(C)c(S(=O)(=O)Nc2ccc3c4c(cccc24)CC3)c(C)c1` the AC40 was 7.76 µM.

Molecule `Cc1ccc(OP(=O)(Nc2cccc(C)c2)Oc2ccc(C)cc2)cc1` has an AC40 of 6.66 µM.

`CN1C(=O)c2cc(NC(=O)Cc3ccccc3)ccc2OC[C@@H]2O[C@@H](CC(=O)NCC3CC3)CC[C@@H]21` gave an AC40 of 0.732 µM.

`CC(C)(C)c1cc(C(=O)NNc2cccc(Cl)c2)n(Cc2ccccc2)n1` was tested, and the AC40 was 4.19 µM.

`COc1ccc(Cl)cc1NS(=O)(=O)c1cc(Cl)ccc1OC` showed an AC40 of 4.45 µM.

`COc1cc(S(=O)(=O)NCc2cccnc2)c(OC)cc1Br` showed an AC40 of 4.72 µM.

`Cc1cc(C(=O)Nc2cccc3c2O[C@@H](CN(C)CC2CCCCC2)[C@@H](C)CN([C@H](C)CO)C3=O)n(C)n1` showed an AC40 of 2.41 µM.

`O=C(CN1CCOCC1)Nc1ccc(Br)cc1C(=O)c1ccccc1` was tested, and the AC40 was 1.64 µM.

Molecule `CN(c1cccc(NC(=O)c2ccc(Cl)c(S(=O)(=O)Nc3ccccc3)c2)c1)S(C)(=O)=O` has an AC40 of 2.18 µM.

Work on `Cc1c(C(=O)OC2CCCC2)[nH]c2c1C(=O)CC(c1ccco1)C2` (configuration not stated) yielded an AC40 of 5.77 µM.

Work on `C=CCNC(=O)c1ccccc1NC(=O)c1ccc(Cl)c(S(=O)(=O)Nc2cccc(C)c2C)c1` yielded an AC40 of 0.734 µM.

`C[C@H](CO)N1C[C@H](C)[C@H](CN(C)Cc2ccc(C(=O)Nc3ccccc3N)cc2)Oc2c(cccc2N(C)C)C1=O` gave an AC40 of 8.75 µM.

`C[C@@H]1CN([C@@H](C)CO)C(=O)c2cccc(NC(=O)Nc3ccc(F)cc3)c2O[C@H]1CN(C)Cc1ccc(C(F)(F)F)cc1` showed an AC40 of 3.97 µM.

`COC(=O)c1ccc(NS(=O)(=O)c2cc(C)ccc2OC)cc1` was tested, and the AC40 was 4.89 µM.

`CC(OC(=O)c1cccc(S(=O)(=O)Nc2cccc(C(F)(F)F)c2)c1)C(=O)Nc1ccc2c(c1)OCCO2` (configuration not stated) was tested, and the AC40 was 3.57 µM.

`CN1c2ccc(-c3ccccc3F)cc2[C@H]2[C@H](CCN2S(=O)(=O)c2ccccc2F)[C@H]1CO` was tested, and the AC40 was 2.4 µM.

`COc1ccc(NP(=O)(Oc2ccc(Cl)cc2)Oc2ccc(Cl)cc2)cc1OC` gave an AC40 of 7.43 µM.

Work on `C[C@@H]1CN([C@H](C)CO)C(=O)c2cccc(NC(=O)c3nc4ccccc4s3)c2O[C@@H]1CN(C)Cc1ccc(C(=O)Nc2ccccc2N)cc1` yielded an AC40 of 17.7 µM.

For `Cc1ccc(-c2nnc(Nc3ccccc3)c3ccccc23)cc1S(=O)(=O)NCC1CCCO1` (configuration not stated), the AC40 was 0.63 µM.

`CN1c2ccc(-c3ccc(F)cc3)cc2[C@H]2[C@H](CCN2S(=O)(=O)c2cccc(F)c2)[C@H]1CO` showed an AC40 of 8.83 µM.

In the case of `COc1ccc(F)cc1S(=O)(=O)NC1CCCCCC1`, the AC40 is reported as 5.11 µM.

`Cc1cc(S(=O)(=O)NC2CCCCC2)c(C)s1` gave an AC40 of 1.44 µM.

For `COc1ccc(OC)c(S(=O)(=O)Nc2ccc3oc4c(c3c2)C(=O)CCC4)c1`, the AC40 was 17.7 µM.

For `COc1ccc(NS(=O)(=O)c2cc3c(cc2C)N(C)CCO3)c(OC)c1`, the AC40 was 1.81 µM.

Molecule `O=S(=O)(N/N=C\c1cccn1-c1ccccc1)c1ccc2ccccc2c1` has an AC40 of 0.263 µM.

Molecule `Cc1cccc(NS(=O)(=O)c2ccc3c(c2)OCCO3)c1` has an AC40 of 1.57 µM.

Molecule `Cc1ccccc1S(=O)(=O)N1CC[C@@H]2[C@@H](CO)Nc3ccc(-c4ccc(F)cc4)cc3[C@@H]21` has an AC40 of 1 µM.

For `N#Cc1ccc(NC(=S)N2CCC3CC2c2cc(-c4ccc5c(c4)OCO5)ccc23)cc1` (configuration not stated), the AC40 was 0.31 µM.

With `CCN(CC)C(=O)CN(c1cc2c(cc1OC)oc1ccccc12)S(=O)(=O)c1ccccc1` the AC40 was 1.69 µM.

For `CCOC(=O)Nc1nc(-c2ccccc2)c(C(=O)c2ccc(Cl)cc2)s1`, the AC40 was 13.8 µM.

`O=C(C1CCC1)N1CCc2cc(S(=O)(=O)NCc3ccco3)ccc21` showed an AC40 of 12.3 µM.

`O=S(=O)(/N=C(/Nc1ccc(Cl)c(S(=O)(=O)Nc2ccccc2Cl)c1)c1ccc(F)cc1)c1ccccc1` showed an AC40 of 26.8 µM.

In the case of `Cc1ccc(C(=O)Nc2ccccc2C(=O)O)cc1S(=O)(=O)Nc1ccccc1`, the AC40 is reported as 2.74 µM.

For `CNC(=S)Nc1ccc(N2CCCC2)c(S(=O)(=O)Nc2ccc(OC)cc2)c1`, the AC40 was 1.31 µM.

Work on `COc1ccc(NS(=O)(=O)c2ccc(NC(=S)NC(=O)C(C)C)cc2)cc1` yielded an AC40 of 1.34 µM.

In the case of `O=S(=O)(NC(=NCc1ccccc1)c1ccc(F)cc1)c1ccc(Cl)cc1`, the AC40 is reported as 13.7 µM.

Work on `COc1ccc(OC)c(N(CC(=O)N2CCC(C)CC2)S(=O)(=O)c2ccccc2)c1` yielded an AC40 of 4.36 µM.

Work on `Cc1ccc(NC(=O)C(OC(=O)c2ccc(F)cc2)c2ccccc2)cc1Cl` (configuration not stated) yielded an AC40 of 2.85 µM.

For `CCOC(=O)c1ccc(S(=O)(=O)NC2CCCCCCC2)n1C`, the AC40 was 3.76 µM.

`CCOc1cc(C)c(Cl)cc1S(=O)(=O)NC1CC(C)(C)NC(C)(C)C1` was tested, and the AC40 was 6.39 µM.

For `COc1ccc(NS(=O)(=O)c2ccc(OC)c(OC)c2)cc1OC`, the AC40 was 5.37 µM.

`COc1cc(NS(=O)(=O)c2ccc3c(c2)C(C)(C)C(=O)N3C)cc(OC)c1` was tested, and the AC40 was 2.85 µM.

Work on `CCN(CC)S(=O)(=O)c1cc(NS(=O)(=O)c2cccc(Cl)c2)ccc1C` yielded an AC40 of 8.63 µM.

In the case of `COc1ccc(NC(=O)Nc2ccc3c(c2)C(=O)N([C@H](C)CO)C[C@@H](C)[C@@H](CN(C)S(=O)(=O)c2ccc(OC)cc2)O3)cc1`, the AC40 is reported as 1.21 µM.

With `CCOc1ccc(Br)cc1S(=O)(=O)Nc1cccc(S(=O)(=O)N(CC)CC)c1` the AC40 was 7.75 µM.

With `COc1ccccc1NS(=O)(=O)c1cc(NC(=O)Nc2ccc(Cl)cc2Cl)ccc1N1CCCCC1` the AC40 was 1.49 µM.

`Cc1cc(S(=O)(=O)NCC(c2ccccc2)c2ccccc2)ccc1-n1cnnn1` showed an AC40 of 2.23 µM.

For `Cc1ccc(C)c(S(=O)(=O)NC(C)CCc2ccccc2)c1` (configuration not stated), the AC40 was 3.81 µM.

`CCc1ccc(-c2cc(C)no2)cc1S(=O)(=O)NC(C)Cc1ccco1` (configuration not stated) was tested, and the AC40 was < 0.26 µM.

`CCC(C)c1ccc(NC(=S)NCc2cccs2)cc1` (configuration not stated) showed an AC40 of 10.1 µM.

`C[C@H](CO)N1C[C@H](C)[C@H](CN(C)Cc2ccc(C(=O)Nc3ccccc3N)cc2)Oc2ccc(NC(=O)Nc3ccc(F)cc3)cc2CC1=O` was tested, and the AC40 was 9.84 µM.

`COc1ccccc1NC(=S)NCC1CCCCC1` showed an AC40 of 8.17 µM.

Molecule `COc1cc(S(=O)(=O)N(CCc2ccccc2)Cc2cccs2)ccc1-n1cnnn1` has an AC40 of 1.33 µM.

Work on `CC(C)CNS(=O)(=O)c1cc2c3c(c1)CCC(=O)N3CCC2` yielded an AC40 of 9.58 µM.

`Cc1cc(C)cc(NS(=O)(=O)c2ccc3oc(=O)ccc3c2)c1` showed an AC40 of 3.43 µM.

For `Cc1ccc(S(=O)(=O)Nc2cccc(S(=O)(=O)N3CCCC3)c2)cc1C`, the AC40 was 1.03 µM.

In the case of `COC(=O)c1ccc(Nc2nnc(-c3ccc(C)c(S(=O)(=O)NCC4CCCO4)c3)c3ccccc23)cc1` (configuration not stated), the AC40 is reported as 0.761 µM.

Work on `Cc1cc(C)c(S(=O)(=O)Nc2ccc(O)cc2)cc1C` yielded an AC40 of 3.45 µM.

`C[C@H](CO)N1C[C@H](C)[C@@H](CN(C)Cc2ccc3c(c2)OCO3)Oc2c(NC(=O)c3ccncc3)cccc2C1=O` was tested, and the AC40 was 13.1 µM.

`Cc1noc(C)c1NC(=O)Nc1cccc2c1O[C@H](CN(C)Cc1ccccc1)[C@@H](C)CN([C@H](C)CO)C2=O` showed an AC40 of 7.74 µM.

With `COc1cc(NS(=O)(=O)c2csc(C(N)=O)c2)cc(OC)c1` the AC40 was 1.51 µM.

Work on `CCCCCCNS(=O)(=O)c1ccc(OC)c(OC)c1` yielded an AC40 of 4.67 µM.

In the case of `COc1ccc(S(=O)(=O)Nc2ccc(C(F)(F)F)cc2)cc1OC`, the AC40 is reported as 2.12 µM.

For `COc1ccc2nc(Nc3nc(CSc4nc5ccccc5[nH]4)cc(=O)[nH]3)nc(C)c2c1`, the AC40 was 9.96 µM.

With `Cc1ccc(C(C)C)cc1S(=O)(=O)NC1CC(C)(C)NC(C)(C)C1` the AC40 was 8.18 µM.

`COc1ccc(S(=O)(=O)Nc2ccc3c(c2)C(=O)N([C@@H](C)CO)C[C@H](C)[C@H](CN(C)C(=O)Nc2ccccc2)OCCCC[C@@H](C)O3)cc1` showed an AC40 of 29.6 µM.

`CCOc1ccc(S(=O)(=O)NCCN2CCOCC2)c2ccccc12` gave an AC40 of 1.14 µM.

`COc1ccc(S(=O)(=O)Nc2ccc(S(=O)(=O)N3CCCCC3)cc2)cc1C` showed an AC40 of 2.44 µM.

With `CC(=O)N1CCOc2ccc(S(=O)(=O)NCCc3cccc(C)c3)cc21` the AC40 was 4.01 µM.

For `C[C@@H]1CN([C@H](C)CO)C(=O)c2cccc(NC(=O)C3CCCCC3)c2O[C@@H]1CN(C)Cc1ccc(C(=O)Nc2ccccc2N)cc1`, the AC40 was 6.1 µM.

`Cc1cc(C)c(-n2nnnc2SCC(=O)c2cccs2)c(C)c1` gave an AC40 of 14.9 µM.

`C[C@H](CO)N1C[C@H](C)[C@H](CN(C)Cc2ccc(Cl)c(Cl)c2)Oc2c(NC(=O)Nc3ccc4c(c3)OCO4)cccc2C1=O` showed an AC40 of 4.58 µM.

Work on `Cc1ccccc1C(=O)Nc1ccc(Br)c(C)n1` yielded an AC40 of 3.17 µM.

`CN(Cc1ccccc1)S(=O)(=O)c1ccc(NC(=S)NC(=O)C2CCCCC2)cc1` was tested, and the AC40 was 13.4 µM.

`Cc1ccc([N+](=O)[O-])cc1N(CC(=O)Nc1ccc(S(=O)(=O)Nc2cccc(C(F)(F)F)c2)cc1)S(C)(=O)=O` gave an AC40 of 14 µM.
